Assay results reported in patent publication US7173063B1, “Topoisomerase poisons for the treatment of proliferative disorders” (Fred Hutchinson Cancer Research Center, priority 2000, dated 2007).

Columns and labels:
yeast Topo I = assay: Toxicity in yeast overexpressing yeast Topo I (yTOP1) or ytop1-vac mutant; format: cell-based
Description: (§1) The strains are derived from the A364a genetic background, with the exception of BY4705, which is derived from the S288C background. Gene disruptions were generated by PCR fragment directed replacement (Baudin, et al., Nucleic Acids Research 21: 3329–30 (1993), Guldener, et al., Nucleic Acids Research 24: 2519–24 (1996)). Yeast overexpressing topoisomerase II was constructed by a PCR fragment directed promoter replacement of the topoisomerase II promoter with the yeast GPD promoter flanked upstream by the URA3 marker. All strains (except BY4705) bear the pleitropic drug sensitizing mutations erg6, pdr1, and pdr3 (Balzi, et al., Journal of Bioenergetics & Biomembranes 27: 71–6 (1995), Delaveau, et al, Molecular & General Genetics 244: 501–11 (1994), Gaber, et al., Molecular & Cellular Biology 9: 3447–56 (1989), Saunders, et al., Canadian Journal of Genetics & Cytology, 24: 493–503 (1982). Subik, et al, Current Genetics 10: 665–70 (1986)). The haploid yeast strain BY4705 (Brachmann, et al., Yeast 14: 115–32 (1998)) was used in the experiments described in FIG. 5. Plasmids expressing yeast or human topoisomerase I genes under the GAL promoter (Knab, et al., Journal of Biological Chemistry 268: 22322–30 (1993). Knab, et al., Journal of Biological Chemistry 270: 6141–8 (1995)) were transformed into BY4705 using standard procedures.
Yeast toxicity assays were performed essentially as follows: Exponentially growing cultures of the appropriate strains were diluted in synthetic complete media to a concentration of 7.4×10^4 cells/mL, and aliquots (135 μL) were transferred to each well of clear flat-bottomed 96 well plates. Compounds were added in duplicate or triplicate as 15 μL of the appropriate dilution in 5% DMSO. A 15 μL portion of 5% DMSO was added to control wells. […] Cell growth (OD660) in treated wells was plotted as a percentage of the growth in at least four averaged solvent control wells for the same strain. Camptothecin sodium salt (camptothecin Na) was the agent used in all yeast assays as standard.
In this regard, the sensitivity of yeast strains overexpressing either human or yeast topoisomerase I genes (hTOP1 or yTOP1, respectively) under the control of the inducible GAL promoter (see, for example, Knab, et al., Journal of Biological Chemistry 268: 22322–30 (1993); and Knab, et al., Journal of Biological Chemistry 270: 6141–8 (1995)) were used. Additionally, the sensitivity of yeast overexpressing the Topo I-VAC mutant enzyme, containing two amino acid substitutions (htop1-vac and ytop1-vac) that render topoisomerase I insensitive to the action of camptothecin were also examined (see, for example, Knab, et al., Journal of Biological Chemistry 268: 22322–30 (1993); and Knab, et al., Journal of Biological Chemistry 270: 6141–8 (1995)).

human Topo I = biological target: T1, human Topo I (Homo sapiens, UniProt P11387); assay: Toxicity in yeast overexpressing human Topo I (hTOP1) or htop1-vac mutant; format: cell-based; conditions: GAL promoter, galactose-induced, vs vector
T1 construct: expressed in transfected cells; host or cells: S. cerevisiae BY4705 (S288C background), plasmid phTOP1 under the GAL promoter, vector pRS416
T1 sequence (P11387 2-765): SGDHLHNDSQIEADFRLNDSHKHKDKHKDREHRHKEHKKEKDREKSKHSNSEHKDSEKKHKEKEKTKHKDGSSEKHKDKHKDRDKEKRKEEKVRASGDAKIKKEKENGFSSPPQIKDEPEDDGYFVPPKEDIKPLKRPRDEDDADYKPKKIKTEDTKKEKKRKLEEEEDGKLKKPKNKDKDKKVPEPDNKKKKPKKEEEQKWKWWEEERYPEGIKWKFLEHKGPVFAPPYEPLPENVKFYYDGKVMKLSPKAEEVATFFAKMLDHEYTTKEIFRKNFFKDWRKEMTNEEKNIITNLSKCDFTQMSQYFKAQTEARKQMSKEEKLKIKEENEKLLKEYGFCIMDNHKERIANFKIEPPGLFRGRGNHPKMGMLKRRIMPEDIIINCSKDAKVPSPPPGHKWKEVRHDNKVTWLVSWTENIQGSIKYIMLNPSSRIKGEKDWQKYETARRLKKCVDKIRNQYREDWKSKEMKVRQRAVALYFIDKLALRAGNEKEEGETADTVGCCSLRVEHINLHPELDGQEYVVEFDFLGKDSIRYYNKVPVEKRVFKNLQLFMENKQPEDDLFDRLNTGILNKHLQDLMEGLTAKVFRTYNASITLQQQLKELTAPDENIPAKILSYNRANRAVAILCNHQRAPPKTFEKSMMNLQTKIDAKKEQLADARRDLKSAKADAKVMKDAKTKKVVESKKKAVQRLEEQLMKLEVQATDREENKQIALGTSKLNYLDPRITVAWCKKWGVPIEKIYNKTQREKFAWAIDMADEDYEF
Description: as §1, with “procedures. […]” for “procedures.”

Rat1a fibroblasts = assay: Effect of exposure time on toxicity in Rat1a fibroblasts; format: cell-based, rat; conditions: for toxicity with a two hour exposure: additional experiments; for toxicity of four hour versus six hour exposure: total incubation 96 hours
Experimental: Cells were plated at a density of 500 cells per well in opaque 96 well plates (Packard) in a volume of 135 μL per well of the appropriate media. The plates were incubated overnight to allow cell adherence. Seven two-fold dilutions of the test compounds were added in a volume of 15 μL per well in triplicate, and 15 μL of media containing an appropriate concentration of DMSO was added to control wells in triplicate. Plates were incubated at 37° C. for 96 hours. The media was then replaced with 100 μL per well of the appropriate media containing 2 μCi/mL of (methyl-^3H) thymidine (Amersham Pharmacia Biotech), then plates were incubated for a further 24 hours at 37° C. Cells were washed three times with PBS, then 100 μL per well of scintillant was added (Microscint 20, Packard), and sealed plates were counted in a microplate reader (Packard Topcount). For suspension chicken cells, (methyl-^3H) thymidine was added directly to the drug-containing media at a concentration of 20 μCi/mL (comprising one tenth of the media volume) and incubated overnight. The suspension cells were transferred to a UniFilter GF/C plate (Packard) and washed with PBS in a plate washer (Packard). After drying, 25 μL per well of scintillant (Microscint 20, Packard) was added, and sealed plates were counted. Toxicity is expressed as a percentage of the control counts. For experiments involving shorter exposures to compounds, cells were grown in the presence of compound for the appropriate time, then the media was replaced with fresh drug-free media, and incubation continued for the remainder of 96 hours, followed by the normal tritiated thymidine uptake and washing protocol.

| Compound | toxicity in yeast overexpressing yTOP1-vac compared to vector control, cell survival by colony formation (yeast Topo I; colony formation after treatment) | effect of ytop1-vac (camptothecin-resistant mutant) overexpression on toxicity (yeast Topo I; relative OD660) | effect of hTOP1 overexpression on toxicity (human Topo I) | effectiveness of 96 hour exposure relative to four hour exposure (Rat1a fibroblasts) | toxicity with a two hour exposure (Rat1a fibroblasts) | toxicity of four hour versus six hour exposure (Rat1a fibroblasts) |
| --- | --- | --- | --- | --- | --- | --- |
| O=c1c(Cl)c(Cl)cnn1CCCl [compound IIa] | is accentuated | effective with both yTOP1 and ytop1-vac | accentuates the toxicity | three- to five-fold | nearly full toxicity | equally effective |
| O=C(CCl)Nc1ccc(C(=O)N/N=C/c2ccc(Cl)cc2)cc1 [compound Ia] | – | – | Little or no accentuation | three- to five-fold | nearly full toxicity | equally effective |
